Results on seven compounds are retold here after BindingDB's records for doi:10.1021/jm020046y (National Institute of Diabetes, 2002).

The target in test [1] is P2X purinoceptor 3 (Rattus norvegicus) (UniProt P49654). The test can be described thus: The compound was evaluated for antagonist activity against recombinant rat P2X purinoceptor 3 (P2X3) at 3 uM, expressed in Xenopus oocytes.
Test [2] shares this target. The test can be described thus: The compound was evaluated for antagonist activity against recombinant rat P2X purinoceptor 3 (P2X3) at 10 uM,expressed in Xenopus oocytes.
The next test addresses P2Y purinoceptor 1 (Meleagris gallopavo, UniProt P49652). The test can be described thus: Evaluated for agonist activity against phospholipase C coupled P2Y purinoceptor 1 (P2Y1) of turkey erythrocytes.
In a further test the target is T1, P2X purinoceptor 7 (Rattus norvegicus, UniProt Q64663).
T1 sequence (Q64663 whole entry): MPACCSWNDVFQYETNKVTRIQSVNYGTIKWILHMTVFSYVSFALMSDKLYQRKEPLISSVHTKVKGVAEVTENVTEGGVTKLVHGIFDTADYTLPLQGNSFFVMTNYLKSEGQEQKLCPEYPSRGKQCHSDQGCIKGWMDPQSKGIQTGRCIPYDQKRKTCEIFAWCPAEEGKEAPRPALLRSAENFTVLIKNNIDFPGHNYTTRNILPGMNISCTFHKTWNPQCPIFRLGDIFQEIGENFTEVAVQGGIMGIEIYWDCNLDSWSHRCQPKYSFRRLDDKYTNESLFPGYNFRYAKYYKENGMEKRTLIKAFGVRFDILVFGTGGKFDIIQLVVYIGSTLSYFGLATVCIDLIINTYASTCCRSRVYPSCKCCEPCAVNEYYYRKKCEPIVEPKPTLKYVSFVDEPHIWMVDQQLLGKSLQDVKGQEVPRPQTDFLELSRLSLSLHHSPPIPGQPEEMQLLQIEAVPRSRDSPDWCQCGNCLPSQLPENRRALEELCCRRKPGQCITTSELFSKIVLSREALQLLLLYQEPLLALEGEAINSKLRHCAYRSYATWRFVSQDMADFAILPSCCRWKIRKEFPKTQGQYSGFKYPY
Put plainly: The compound was evaluated for antagonist activity against recombinant rat P2X purinoceptor 7 (P2X7).

Test [3] in a line: Dissociative constant against P2Y purinoceptor (P2Y) was reported; range 10-214.
Test [4] concerns the target P2X purinoceptor 2 (Rattus norvegicus). Put plainly: The compound was evaluated for antagonist activity against recombinant rat P2X purinoceptor 2 (P2X2) at 30 uM.
Test [5] can be described thus: The compound was evaluated for antagonist activity against recombinant rat P2X […] receptor 10 uM.
The nature of test [6]: Dissociation constant at P2X purinoceptor 1 from guinea pig taenia coli.

Sequence of P2X purinoceptor 3 (Rattus norvegicus) (P49654 whole entry, looked up): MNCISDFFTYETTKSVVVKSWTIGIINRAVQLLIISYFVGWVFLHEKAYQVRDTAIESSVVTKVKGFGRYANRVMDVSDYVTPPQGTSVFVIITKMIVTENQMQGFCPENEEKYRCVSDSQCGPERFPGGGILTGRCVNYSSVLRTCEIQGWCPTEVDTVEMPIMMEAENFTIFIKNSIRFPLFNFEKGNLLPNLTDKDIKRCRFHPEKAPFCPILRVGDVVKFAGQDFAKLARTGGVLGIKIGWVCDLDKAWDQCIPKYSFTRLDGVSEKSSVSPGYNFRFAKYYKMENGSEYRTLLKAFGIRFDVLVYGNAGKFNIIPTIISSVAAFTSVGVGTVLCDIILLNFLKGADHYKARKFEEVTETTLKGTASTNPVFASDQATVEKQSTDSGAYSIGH
Sequence of P2Y purinoceptor 1 (P49652 whole entry): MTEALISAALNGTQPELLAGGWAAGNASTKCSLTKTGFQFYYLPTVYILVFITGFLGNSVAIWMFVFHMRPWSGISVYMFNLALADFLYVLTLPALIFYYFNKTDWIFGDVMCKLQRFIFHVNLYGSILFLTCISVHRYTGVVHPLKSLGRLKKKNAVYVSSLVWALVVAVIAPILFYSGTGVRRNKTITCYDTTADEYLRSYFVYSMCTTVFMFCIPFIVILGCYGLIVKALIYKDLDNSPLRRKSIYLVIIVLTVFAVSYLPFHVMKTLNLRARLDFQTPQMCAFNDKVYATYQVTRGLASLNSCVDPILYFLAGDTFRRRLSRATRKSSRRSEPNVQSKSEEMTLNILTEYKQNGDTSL

In general, EC50 refers to the concentration that produces a half-maximal response. Consider `Nc1ncnc2c1ncn2[C@@H]1O[C@H](CO[P@@](=O)(O)O[P@@](=O)(O)CP(=O)(O)O)[C@@H](O)[C@H]1O`, for which the EC50 in test [1] worked out at 9200 nM.
As to `CCCCCCSc1nc(N)c2ncn([C@@H]3O[C@H](COP(=O)(O)O)[C@@H](O)[C@H]3O)c2n1` [((2R,3S,4R,5R)-5-(6-amino-2-(hexylthio)-9H-purin-9-yl)-3,4-dihydroxytetrahydrofuran-2-yl)methyl dihydrogen phosphate], the EC50 in test [2] amounted to 350 nM.
`CCOc1ccc(Nc2ccc([C+](c3ccc(N(CC)Cc4cccc(S(=O)(=O)[O-])c4)cc3C)c3ccc(N(CC)Cc4cccc(S(=O)(=O)O)c4)cc3C)cc2)cc1` [Brilliant Blue]: the figures for the EC50 at P2Y purinoceptor 1 and at P2X purinoceptor 7 were 0.1 nM and 400 nM, respectively.
The term Kd denotes the equilibrium constant for the complex coming apart. In test [3], `O=S(=O)(O)c1cc(N=C=S)ccc1/C=C/c1ccc(N=C=S)cc1S(=O)(=O)O` [DIDS] displayed a Kd of 10000 nM.
Usually IC50 stands for the concentration that inhibits the measured activity by half. For `O=c1[nH]cnc2c1ncn2[C@@H]1O[C@H](COP(=O)(O)OP(=O)(O)OP(=O)(O)OP(=O)(O)OP(=O)(O)OC[C@H]2O[C@@H](n3cnc4c(=O)[nH]cnc43)[C@H](O)[C@@H]2O)[C@@H](O)[C@H]1O` [Ip5I], the IC50 was greater than 30000 nM in test [4] and 2800 nM in test [5].
Regarding `Nc1ccc(CCSc2nc(N)c3ncn([C@@H]4O[C@H](COP(=O)(O)OP(=O)(O)OP(=O)(O)O)[C@@H](O)[C@H]4O)c3n2)cc1` [PAPET-ATP], the EC50 in test [2] was 17 nM.
In the case of `C=CS(=O)(=O)c1cccc(Nc2cc(S(=O)(=O)O)c(N)c3c2C(=O)c2ccccc2C3=O)c1` [Uniblue A], the Kd in test [6] was 800 nM.
